Laboratory results published in US8784824B2, “Compositions and methods for treatment of angiogenesis in pathological lesions” (Philogen S.p.A., priority 2000, dated 2014).
Each block holds one compound with its values, some of them ahead of it.

Key:
[1] = test system: C51 murine carcinoma cell line; assay: Crystal violet cytotoxicity assay; type: cell-based; conditions: Mus musculus; C51 cells; crystal violet staining (FIG. 9); read-out: 50% inhibitory concentrations towards C51 cells
Method: C51 murine adenocarcinoma cells were seeded in 24-well plates at a density between […] per well. The plates were incubated overnight at 37° C. in humidified, 5% CO2 atmosphere to ensure the growth of the monolayer. The medium was then removed and different concentrations of doxorubicin was added. Relative cell numbers in treated and control plates were determined by crystal violet staining. Quantification is possible by solubilising the absorbed dye in ethanol 70% and determining optical density at 590 nm where absorbance is directly proportional to cell number. Relative cell number can be expressed as T/C=T−C0/C−C0×100 [T=absorbance of treated cultures, C=absorbance of control cultures, and C0=absorbance of cultures at the start of incubation (t=0)]. The results of this study are depicted in FIG. 9.

[2] = intravenously injected; cited from earlier work
FXa = assay: Enzymatic activity of TF moiety, Spectrozyme FXa assay; type: biochemical; conditions: method of Ruf et al
Method: The enzymatic activity of the scFv-TF fusion protein was analyzed using the Spectrozyme FXa assay (American Diagnostica, Pfungstadt, Germany) as described by Ruf et al (1991).

C51 murine carcinoma = assay: In vivo treatment with scFv-TF fusion protein, C51 tumors; parameters: species or system mouse
Method: (§1) Tumor bearing mice were obtained by subcutaneous injection of 10^6 of FE8 rat fibroblast, C51 colon carcinoma or F9 teratocarcinoma cells (Tarli et al., 1999). The cells were allowed to grow until the tumoral volume could be measured by a slide-calliper.
(§2) Mice with tumors of volume ca 200-300 mm^3 were injected with 20 ug scFv-TF fusion protein corresponding to 10 ug TF in 200 ul saline. The injection was repeated after 48 and 96 hours. Mice were monitored by tumor volume, weight and appearance including photographic documentation.
(§3) Mice with tumors of volume ca 1500 mm^3 were injected with a single dose of with 20 ug scFv-TF fusion protein corresponding to 10 ug TF in 200 ul saline. The injection was not repeated. Mice were monitored by tumor volume, weight and appearance including photographic documentation.

[3] = test system: F9 murine teratocarcinoma; assay: In vivo treatment with scFv-TF fusion protein, F9 tumors; parameters: species or system mouse; conditions: small F9 tumors; three injections of 20 μg (FIG. 4)
Method: as §1, §2

[4] = test system: F9 murine teratocarcinoma, C51 murine carcinoma or FE8 tumors; assay: Tumor infarction after scFv-TF injection in tumor bearing mice; type: in vivo, mouse; conditions: few hours after injection
Method: The antitumor activity of scFv(L19)-TF and scFv(D1.3)-TF was tested in mice bearing the F9 murine teratocarcinoma, the C51 murine carcinoma or FE8 tumors (derived from subcutaneously implanted ras-transformed rat fibroblasts). Experiments were performed both in mice bearing small tumors and in mice bearing very large tumors.
as §1

[5] = test system: FE8 tumors (ras-transformed rat fibroblasts); assay: In vivo treatment with scFv-TF fusion protein, FE8 tumors; parameters: species or system mouse; conditions: large FE8 tumors; one injection of 20 μg (FIG. 7)
Method: as §1, §3

[6] = molecular target: T1, ED-B domain of fibronectin (Homo sapiens, UniProt P02751); assay: Antigen binding assays of scFv(L19)-TF (ELISA, BIAcore, antigen column)
T1 sequence (P02751 1271-1359 limits assumed): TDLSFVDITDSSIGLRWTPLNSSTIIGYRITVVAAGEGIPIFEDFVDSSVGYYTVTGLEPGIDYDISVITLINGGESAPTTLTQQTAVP
Method: The immunoreactivity of the scFv-TF fusion protein was analyzed by ELISA immunoassay, by BIAcore and by affinity chromatography on antigen column, as described (Neri et al., 1996; D. Neri et al. (1997) Nature Biotechnology, 15, 1271-1275.; Tarli et al., 1999).

[7] = test system: subcutaneously implanted F9 murine teratocarcinoma; assay: Biodistribution of radioiodinated scFv(L19)-TF; type: in vivo, mouse; conditions: injected intravenously, quantitative biodistribution (FIG. 3)
Method: The in vivo targeting performance was analysed by biodistribution analysis as described in Tarli et al. (1999). Briefly, purified scFv(L19)-TF fusion protein was radioiodinated and injected into nude mice with subcutaneously implanted F9 murine teratocarcinoma. Mice were sacrificed at 24 hours after injection. The organs were weighed and the radioactivity counted. Targeting results of representative organs are expressed as percent of the injected dose per gram of tissue (% ID/g).

[8] = molecular target: T1, ED-B domain of fibronectin; assay: Binding of L19-IFN-γ fusion proteins to ED-B (ELISA, BIAcore)
tumor cells = assay: Block of tumor cell proliferation by L19-IFN-γ fusion proteins; type: cell-based; conditions: typical IFN-γ-dependent fashion

Compound: COc1cccc2c1C(=O)c1c(O)c3c(c(O)c1C2=O)C[C@@](O)(C(=O)CO)C[C@@H]3O[C@H]1C[C@H](N)[C@H](O)[C@H](C)O1 [doxorubicin, Doxorubicin]
- IC50 [1]: ~100 nM
- maximal tolerated dose [2]: 8 mg/kg

- activity of the antibody moiety [6]: active
Compound: scFv(L19)-TF: scFv(L19) specific for ED-B domain of fibronectin genetically fused to truncated tissue factor
- activity of the TF moiety (FXa): active
- antitumor effect on tumor growth (C51 murine carcinoma; large C51 tumors, one injection of 20 μg (FIG. 6)): stopped tumor growth
- reduction of growth rate (C51 murine carcinoma; small C51 tumors, three injections of 20 μg (FIG. 5)): approx. 50%
- reduction of growth rate [3]: approx. 50%
- tumor infarction [4]: rapid and extensive tumor infarction
- antitumor effect on tumor growth [5]: stopped tumor growth
- ability to target solid tumors [7]: target solid tumors

- binding to the ED-B domain of fibronectin [8]: strong binding
Compound: scFv(L19)-(IFN-γ)2: IFN-γ homodimer (two IFN-γ joined by a polypeptide linker) fused at the C-terminal extremity of scFv(L19)
- block of proliferation of tumor cells (tumor cells): block the proliferation of tumor cells
